Drawing on patent US5098613A, “Anti-inflammatory agents” (Eli Lilly and Company, priority 1990, dated 1992), this text covers inhibition and inhibition in vivo for 20 compounds.

Counter-ions that a name gives are not always drawn.

Test [1] addresses T1, leukotriene B4 specific receptor on the membrane of human neutrophils (Homo sapiens, UniProt Q15722).
T1 construct: incubating neutrophils (1×10^7 cells) with 0.1-0.2 nM ^3 H-LTB4; endogenous in cells; host or cells: human peripheral blood neutrophils (buffy coats of two blood donors)
In words: Inhibition of Binding of ^3 H-LTB4 to Peripheral Human Neutrophils. The settings on record: 4° C., 10 minutes; for inhibition at 10 µM: drug concentration 10^-5 M, read-out: LTB4 Binding Inhibition; for inhibition at 1 µM: drug concentration 10^-6 M. Here is the method:
The effectiveness of compounds to inhibit the binding of leukotriene B4 to a specific receptor on the membrane of human neutrophils was measured by using an adaptation of a radio-ligand binding assay developed by Goldman and Goetzl, J. Immunol., 129, 1600 (1982). Other investigators have developed similar assays (see, e.g., Kreisle, et al., J. Exp. Med., 157, 628 (1983) and Lin, et al., Prostaglandins, 28, 837 (1984)).
Cells used in the assay were isolated by standard techniques of centrifugation on Ficol-Hypaque, dextran 70 sedimentation and hypotonic lysis. The following procedure was used. Freshly-prepared buffy coat layers from two individuals were obtained from a local blood donor center. The cells were mixed and diluted to 484 ml. with phosphate buffered saline containing heparin (10 units/ml) and heat-inactivated calf serum (5%). This was divided into 20 ml. aliquots and the aliquots layered on top of Ficoll-Paque (12 ml.). The material was then centrifuged at 500 g. for 40 minutes at room temperature. The resulting upper layer of platelets and mononuclear cells was discarded. The lower layer containing erythrocytes and neutrophils was retained. Buffer was added (1 ml. per 4 ml. of lower layer) and the suspension mixed. For each milliliter of this mixture, 0.33 ml. of 6% Macrodex was added. After stirring, the cels were allowed to sediment for 1 hour at 37° C. The resulting erythrocyte pellet was discarded and the neutrophil enriched supernatant fluid centrifuged at 500 g. for 10 minutes at 4° C. Erythrocytes still present in this cell pellet were lysed by incubating the cells with 5-8 ml. ice-cold distilled water for 30-45 seconds. Subsequently, the volume was made up to 50 ml. by addition of ice-cold buffer and the cells resuspended. The suspension was then centrifuged at 300 g. for 10 minutes at 4° C. The cells were finally resuspended at a cell density of 2×10^7 cells/ml in the assay buffer. This buffer Consisted of Hanks' balanced salt solution and 0.1% ovalbumin (pH 7.3).
The radio-ligand binding assay was conducted by incubating neutrophils (1×10^7 cells) with 0.1-0.2 nM ^3 H-LTB4 (sp. act. 150-220 Curies/mmol) and test compound (1×10^-5 M and 1×10^-6 M) for 10 minutes at 4° C. The amount of bound ^3 H-LTB4 was then measured and compared with the amount bound in the absence of test compound. The assay was carried out in microcentrifuge tubes by adding first 10 μl test compound dissolved in DMSO, followed by adding 20 μl ^3 H-LTB4 diluted in assay buffer, and finally adding 500 μl of the cell suspension pension. At the end of the 10 minutes incubation, 300 μl of a mixture of dibutyl and dinonyl phthalate (7:2) were added and the tubes centrifuged for 2 minutes in a microcentrifuge. The radioactivity bound to the cell pellet was measured by scintillation spectroscopy. Appropriate corrections for nonspecific bonding of ^3 H-LTB4 were made.

Test [2] has as its system IL-1 induced T-cell Proliferation. As to the kind of experiment: Anti IL-1 Activity (Thymocyte Assay): suppression of IL-1 induced T-cell proliferation. Format: cell-based, C3H/HeJ male mice. The settings on record: mouse thymocytes, 48 hours, read-out: Percent T-cell suppression; for inhibition at 1 µg/mL: 1 mcg/ml; for inhibition at 10 µg/mL: 10 mcg/ml. Here is the method: Thymus from 3-4 week old C3H/HeJ male mice and were passed through a #100 mesh screen to make a single cell suspension. The cells were suspended in RPMI-1640 supplemented with 2×10^-5 M 2-mercaptoethanol, 3% fetal calf serum, and 1% Penicillin/Streptomycin. The cell suspension was placed in a tissue culture flask and incubated at 37° C. in 5% carbon dioxide in air for 1-2 hours. The thymocytes were decanted, leaving adherent cells behind, and the liquid was centrifuged at 1400 rpm for 10 minutes. After decanting the supernatant, the cells were resuspended and counted with a hemocytometer. The density was adjusted to […]. Fifty μ1 of the suspension were added to each well of a 96-well microtiter plate, followed by the addition of 25 μl of PHA and 25 μl IL-1 (1:25 dilution of a 10 mcg/ml stock solution) per well.
Each compound to be tested was dissolved in 30% DMSO/70% PBS to make a stock solution of 1 mg/ml. Fifteen μl of each compound were added to 300 μl of media in the serial dilution plate. Twenty-five μl of each drug were added to the test plate in quadruplicate wells across the plate. The plate was incubated at 37° C. in 5% carbon dioxide in air for 48 hours. The wells were pulsed with tritiated thymidine (5 μCi.well) for 4 hours before harvesting on a Skatron cell harvester. The filter discs were placed in mini-vials, scintillation fluid (Tol-Pop) was added, and the vials counted. The percent of counts for each vial compared with control samples wherein no compound was added (vehicles only) was determined for each compound and are reported as Table III below as the percent T-ce1 suppression.

For test [3], the system named is Arachidonic Acid Induced Ear Edema. As to the kind of experiment: Arachidonic Acid-Induced Ear Edema Assay. It is filed as in vivo, Female BALB/C mice. The following applies: Mus musculus, 1 h; 0.05% in ethanol gel, topical, one hour prior to arachidonic acid; read-out: Percent Inhibition of Ear Swelling. The procedure: Female BALB/C mice (Charles River; 18-20 rams) were divided into groups of five. Arachidonic acid was dissolved in ethanol at a concentration of 200 mg/ml. Each mouse received 2 mg/ear of arachidonic acid on the inner surface of the right ear. This dose of phlogistic was applied by an automatic pipette in 10 mcl volumes. The left ear (control) received ethanol. Drugs were applied topically in an ethanol-based gel to the entire outer surface of both ears one hour prior to arachidonic acid application. Edema was measured by the increase in ear weight. An hour after arachidonic acid solution or vehicle was applied, an ear sample of 7 mm in diameter was obtained from both ears. Ear edema was calculated by subtracting the […], dividing by the weight of the left/Control ear, and averaging the results for each group of mice according to compound and concentration.

T1 sequence (Q15722 whole entry): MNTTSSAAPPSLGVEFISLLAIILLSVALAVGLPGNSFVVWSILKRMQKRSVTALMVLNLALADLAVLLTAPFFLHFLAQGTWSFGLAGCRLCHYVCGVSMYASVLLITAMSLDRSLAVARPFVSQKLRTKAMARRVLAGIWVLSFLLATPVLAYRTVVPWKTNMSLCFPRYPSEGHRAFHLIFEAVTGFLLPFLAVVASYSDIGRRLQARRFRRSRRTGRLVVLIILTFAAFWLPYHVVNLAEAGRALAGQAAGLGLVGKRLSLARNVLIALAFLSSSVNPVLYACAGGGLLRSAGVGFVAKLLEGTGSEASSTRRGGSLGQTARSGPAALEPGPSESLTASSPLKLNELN

For the compound `C=CCc1cc(C(C)=O)c(O)cc1OCCCCCCCC` [Example 38, 4-(Octyloxy)-5-allyl-2-hydroxyacetophenone], in test [1], the inhibition at 10 µM is 16% and the inhibition at 1 µM turned out to be 8%. Further, in test [2], the inhibition at 1 µg/mL was -8% and the inhibition at 10 µg/mL worked out at 28%.
In the same order, the values of `CCc1cc(C(=O)c2cccc(C(=O)O)c2)c(O)cc1OCCCCC#N` [Example 92] are 40%, 20%, 5% and 38%.
Consider `CCCc1cc(C(C)=O)c(Cl)cc1OCCCCC#N` [Example 15, 5-(4-Acetyl-5-chloro-2-propylphenoxy)-pentanenitrile], for which, in test [1], the inhibition at 10 µM amounted to 35% and the inhibition at 1 µM turned out to be 13%. For the same compound, in test [2], the inhibition at 1 µg/mL came to 33% and the inhibition at 10 µg/mL was determined as 91%.
As to `C=CCc1cc(C(C)=O)c(O)cc1OCCCCc1nn[nH]n1` [Example 109, 2-Hydroxy-5-allyl-4-[4-(lH-tetrazol-5-yl)-butoxy]acetophenon], in test [1], the inhibition at 10 µM was 41% and the inhibition at 1 µM turned out to be 3%. In test [2], the inhibition at 1 µg/mL was 7% and the inhibition at 10 µg/mL was 56%.
Taken in the same sequence, the figures for `CCCc1cc(C(C)=O)c(O)cc1OCCCCC(=O)O` [Example 132, 5-(4-Acetyl-5-hydroxy-2-propylphenoxy)pentanoic acid] were 0%, 0%, 15% and 59%.
Taken in the same sequence, the figures for `CC(=O)c1cc(CO)c(OCCCCCCC#N)cc1O` [Example 36, 7-[4-Acetyl-5-hydroxy-2-(hydroxymethyl)-phenoxy]heptanenitrile] were 40%, 7%, 15% and 75%.
In the same order, the values of `CCc1cc(C(=O)c2ccccc2C(=O)O)c(O)cc1OCCCCC#N` [Example 89, 2-[4-(4-Cyanobutoxy)-5-ethyl-2-hydroxybenzoyl]benzoic acid] are 11%, 15%, 9% and 39%.
Consider `CC(=O)c1cc(CC(C)O)c(OCCCCC#N)cc1O` (stereo not drawn) [Example 125, 5-[4-Acetyl-5-hydroxy-2-(2-hydroxypropyl)-phenoxy]pentanenitrile], for which, in test [1], the inhibition at 10 µM was 10% and the inhibition at 1 µM is 6%. In test [2], the inhibition at 1 µg/mL was found to be 30% and the inhibition at 10 µg/mL was 85%.
Taken in the same sequence, the figures for `C=CCc1cc(C(C)=O)c(O)cc1OCCCCN(C)C` [Example 76, 4-[4-(Dimethylamino)butoxy]-2-hydroxy-5-allylacetophenone hydrochloride] were 0%, 0%, 39% and 79%.
For the compound `CCc1cc(C(C)=O)c(O)cc1OCc1cccc(Cl)c1` [Example 56, 4-(3-Chlorobenzyloxy)-5-ethyl-2-hydroxyacetophenone], in test [1], the inhibition at 10 µM was 42% and the inhibition at 1 µM turned out to be 15%. In addition, the inhibition in vivo at 0.05 % in test [3] was determined as 6%.
As for `C=CCc1cc(C(=O)CCCCCCCCC)c(O)cc1OCCCCC#N` [Example 107, 5-[5-Hydroxy-4-(1-oxodecyl)-2-allylphenoxy]pentanenitrile], in test [1], the inhibition at 10 µM turned out to be 10% and the inhibition at 1 µM is 6%. In test [2], the inhibition at 1 µg/mL was determined as 47% and the inhibition at 10 µg/mL worked out at 26%.
Turning to `CCCCc1cc(C(C)=O)c(O)cc1OCCCCC#N` [Example 30, 5-(4-Acetyl-2-butyl-5-hydroxyphenoxy)-pentanenitrile], in test [1], the inhibition at 10 µM was found to be 37% and the inhibition at 1 µM is 7%. For the same compound, in test [2], the inhibition at 1 µg/mL is 32% and the inhibition at 10 µg/mL amounted to 91%.
Taken in the same sequence, the figures for `CCc1cc(C(=O)c2ccccc2)c(O)cc1OCCCCC#N` [Example 130, 5-(4-Benzoyl-2-ethyl-5-hydroxyphenoxy)pentane-nitrile] were 48%, 23%, 41% and 99%.
In the same order, the values of `CCc1cc(C(=O)CCCCC(=O)O)c(O)cc1OCCCCC#N` [Example 90, 6-[(4-Cyanobutoxy)-5-ethyl-2-hydroxybenzene]-6-oxohexanoic acid] are 1%, -2%, 3% and 47%.
On to `C=CCc1cc(C(C)=O)c(O)cc1OCCCCN1CCOCC1` [Example 75, 2-Hydroxy-4-[4-(4-morpholino)butoxy]-5-allylacetophenone hydrochloride], for which, in test [1], the inhibition at 10 µM worked out at 0% and the inhibition at 1 µM came out at 0%.
For the compound `CCc1cc(C(C)=O)c(O)cc1OCCCCCn1cncn1` [Example 146], in test [1], the inhibition at 10 µM came out at 81% and the inhibition at 1 µM stood at 29%.
In the same order, the values of `C=CCc1cc(C(C)=O)c(O)cc1OCCCCCCC#N` [Example 24, 7-(4-Acetyl-5-hydroxy-2-allylphenoxy)-] are 94% and 59%.
For the compound `C=CCc1cc(C(C)=O)c(OC)cc1OCCCCC#N` [Example 115, 5-(4-Acetyl-5-methoxy-2-allylphenoxy)pentanenitrile], in test [1], the inhibition at 10 µM is 12 to 16% and the inhibition at 1 µM lay within 7 to 8%. In addition, in test [2], the inhibition at 1 µg/mL was 29% and the inhibition at 10 µg/mL is 96%.
On to `CCc1cc(C(C)=O)c(O)cc1OCCCCCN` [Example 137, 1-{4-[(5-Aminopentyl)oxy]-5-ethyl-2-hydroxyphenyl}ethanone], for which, in test [1], the inhibition at 10 µM turned out to be 43% and the inhibition at 1 µM is 22%.
In the same order, the values of `C=CCc1cc(C(C)=O)c(O)cc1OCc1ccc(CC#N)cc1` [Example 71, 4-[(4-Acetyl-5-hydroxy-2-allylphenoxy)-methyl]benzeneacetonitrile] are 30% and 17%.
